Like-named read-outs stand apart in the source and are kept apart here.
What was measured:
cancer cell lines = assay: Cell viability analysis (WST-1) on cancer cell lines; assay type: cell-based, human; conditions: drug 10 μM, 72 hours, WST-1; Table 3
[1] = tested on: HI650 (Lung Adenocarcinoma); assay: Cell viability analysis, lung cancer HI650; assay type: cell-based, human; conditions: for viability at 10 µM: Homo sapiens
[2] = tested on: A549 (Lung Adenocarcinoma); assay: Cell viability analysis, lung cancer A549; assay type: cell-based, human; conditions: for viability at 10 µM: Homo sapiens, A549
[3] = tested on: AGS (Gastric Adenocarcinoma); assay: Cell viability analysis, gastric cancer AGS; assay type: cell-based, human; conditions: for viability at 10 µM: Homo sapiens
[4] = tested on: MKN-45 (Gastric Adenocarcinoma); assay: Cell viability analysis, gastric cancer MKN-45; assay type: cell-based, human; conditions: for viability at 10 µM: Homo sapiens, MKN-45
[5] = tested on: HepG2 (Hepatocellular Carcinoma); assay: Cell viability analysis, hepatic cancer HepG2; assay type: cell-based, human; conditions: for viability at 10 µM: Homo sapiens, HepG2
[6] = tested on: Hep3B (hepatocellular carcinoma); assay: Cell viability analysis, hepatic cancer Hep3B; assay type: cell-based, human
[7] = tested on: LoVo (Colorectal Adenocarcinoma); assay: Cell viability analysis, colon cancer LoVo; assay type: cell-based, human; conditions: for viability at 10 µM: Homo sapiens, LoVo
[8] = tested on: A375 (Amelanotic Melanoma); assay: Cell viability analysis, skin cancer A375; assay type: cell-based, human; conditions: for viability at 10 µM: Homo sapiens
[9] = tested on: BCC (basal cell carcinoma); assay: Cell viability analysis, skin cancer BCC; assay type: cell-based, human
[10] = tested on: HeLa (Cervix Adenocarcinoma); assay: Cell viability analysis, cervical cancer HeLa; assay type: cell-based, human; conditions: for viability at 10 µM: Homo sapiens, HeLa
[11] = tested on: C-33A (Cervical carcinoma); assay: Cell viability analysis, cervical cancer C-33A; assay type: cell-based, human
[12] = tested on: PC3 (p53−) (Prostate Adenocarcinoma); assay: Cell viability analysis, prostate cancer PC3; assay type: cell-based, human; conditions: for viability at 10 µM: Homo sapiens
[13] = tested on: TSGH-8301 (Urinary Bladder Carcinoma); assay: Cell viability analysis, bladder cancer TSGH-8301; assay type: cell-based, human; conditions: for viability at 10 µM: Homo sapiens
T24 = assay: Cell viability analysis, bladder cancer T24; assay type: cell-based, human
[14] = tested on: MCF7 (Mammary Gland, Adenocarcinoma); assay: Cell viability analysis, breast cancer MCF7; assay type: cell-based, human; conditions: for viability at 10 µM: Homo sapiens
[15] = tested on: MDA-MB-231 (Mammary Gland, Adenocarcinoma); assay: Cell viability analysis, breast cancer MDA-MB-231; assay type: cell-based, human
BxPC-3 = assay: Cell viability analysis, pancreatic cancer BxPC-3; assay type: cell-based, human
AsPC-1 = assay: Cell viability analysis, pancreatic cancer AsPC-1; assay type: cell-based, human
NIH: OVCAR-3 = assay: Cell viability analysis, ovarian cancer NIH: OVCAR-3; assay type: cell-based, human
TOV-21G = assay: Cell viability analysis, ovarian cancer TOV-21G; assay type: cell-based, human
[16] = tested on: SAS (Tongue squamous cell carcinoma); assay: Cell viability analysis, tongue cancer SAS; assay type: cell-based, human
U-2OS = assay: Cell viability analysis, osteosarcoma U-2OS; assay type: cell-based, human
[17] = tested on: 786-O (Renal adenocarcinoma); assay: Cell viability analysis, renal cancer 786-O; assay type: cell-based, human
[18] = tested on: HL-60 (Acute Promyelocytic Leukemia); assay: Cell viability analysis, leukemia HL-60; assay type: cell-based, human; conditions: Homo sapiens, HL-60; drug 10 μM, 72 hours, WST-1, OD450 nm; read-out: cell viability (survival rate), HL-60
[19] = tested on: HCT116 (p53+) (Colorectal Carcinoma)

CCC[S+]([O-])c1ccc2[nH]c(NC(=O)OC)nc2c1 (centres unmarked) [Albendazole Oxide (Ricobendazole), Albendazole Oxide]
inhibition effect on different cancer cell lines (cancer cell lines): significant inhibition effect | viability at 10 µM ([1]; NCI-H1650, 72 h, H1650, repeated experiment, read-out: The results of antibiotic drug inhibiting cancer cell lines (cell viability analysis), H1650): 64.6% | viability at 10 µM ([1]; NCI-H1650, drug 10 μM, 72 hours, WST-1, OD450 nm, read-out: cell viability (survival rate), H1650): 59.5% | viability at 10 µM ([2]; 72 h, repeated experiment, read-out: The results of antibiotic drug inhibiting cancer cell lines (cell viability analysis), A549): 95.5% | viability at 10 µM ([2]; drug 10 μM, 72 hours, WST-1, OD450 nm, read-out: cell viability (survival rate), A549): 155% | viability at 10 µM ([3]; 72 h, AGS, repeated experiment, read-out: The results of antibiotic drug inhibiting cancer cell lines (cell viability analysis), AGS): 80% | viability at 10 µM ([3]; drug 10 μM, 72 hours, WST-1, OD450 nm, read-out: cell viability (survival rate), AGS): 34% | viability at 10 µM ([4]; 72 h, repeated experiment, read-out: The results of antibiotic drug inhibiting cancer cell lines (cell viability analysis), MKN-45): 74.3% | viability at 10 µM ([4]; drug 10 μM, 72 hours, WST-1, OD450 nm, read-out: cell viability (survival rate), MKN-45): 60.8% | viability at 10 µM ([5]; 72 h, repeated experiment, read-out: The results of antibiotic drug inhibiting cancer cell lines (cell viability analysis), HepG2): 92.9% | viability at 10 µM ([5]; drug 10 μM, 72 hours, WST-1, OD450 nm, read-out: cell viability (survival rate), HepG2): 104% | viability at 10 µM ([6]; Homo sapiens, Hep3B, 72 h, read-out: The results of antibiotic drug inhibiting cancer cell lines (cell viability analysis), Hep3B): 97.9% | viability at 10 µM ([7]; 72 h, repeated experiment, read-out: The results of antibiotic drug inhibiting cancer cell lines (cell viability analysis), LoVo): 88.2% | viability at 10 µM ([7]; drug 10 μM, 72 hours, WST-1, OD450 nm, read-out: cell viability (survival rate), LoVo): 68.9% | viability at 10 µM ([8]; A-375, 72 h, A375, repeated experiment, read-out: The results of antibiotic drug inhibiting cancer cell lines (cell viability analysis), A375): 66.5% | viability at 10 µM ([8]; A-375, drug 10 μM, 72 hours, WST-1, OD450 nm, read-out: cell viability (survival rate), A375): 92.9% | viability at 10 µM ([9]; Homo sapiens, 72 h, read-out: The results of antibiotic drug inhibiting cancer cell lines (cell viability analysis), BCC): 57.1% | viability at 10 µM ([10]; 72 h, repeated experiment, read-out: The results of antibiotic drug inhibiting cancer cell lines (cell viability analysis), HeLa): 49.4% | viability at 10 µM ([10]; drug 10 μM, 72 hours, WST-1, OD450 nm, read-out: cell viability (survival rate), HeLa): 56% | viability at 10 µM ([11]; Homo sapiens, C-33-A, 72 h, read-out: The results of antibiotic drug inhibiting cancer cell lines (cell viability analysis), C-33A): 102% | viability at 10 µM ([12]; 72 h, PC-3, repeated experiment, read-out: The results of antibiotic drug inhibiting cancer cell lines (cell viability analysis), PC-3): 78.7% | viability at 10 µM ([12]; drug 10 μM, 72 hours, WST-1, OD450 nm, read-out: cell viability (survival rate), PC3): 60.5% | viability at 10 µM ([13]; 72 h, TSGH-8301, repeated experiment, read-out: The results of antibiotic drug inhibiting cancer cell lines (cell viability analysis), TSGH-8301): 63.3% | viability at 10 µM ([13]; drug 10 μM, 72 hours, WST-1, OD450 nm, read-out: cell viability (survival rate), TSGH): 77.7% | viability at 10 µM (T24; Homo sapiens, T-24, 72 h, read-out: The results of antibiotic drug inhibiting cancer cell lines (cell viability analysis), T24): 89.8% | viability at 10 µM ([14]; MCF7, 72 h, MCF-7, repeated experiment, read-out: The results of antibiotic drug inhibiting cancer cell lines (cell viability analysis), MCF-7): 68.3% | viability at 10 µM ([14]; MCF7, drug 10 μM, 72 hours, WST-1, OD450 nm, read-out: cell viability (survival rate), MCF7): 62.3% | viability at 10 µM ([15]; Homo sapiens, MDA-MB-231, 72 h, read-out: The results of antibiotic drug inhibiting cancer cell lines (cell viability analysis), MDA-MB231): 81.1% | viability at 10 µM (BxPC-3; Homo sapiens, BXPC-3, 72 h, read-out: The results of antibiotic drug inhibiting cancer cell lines (cell viability analysis), BxPC-3): 50.2% | viability at 10 µM (AsPC-1; Homo sapiens, ASPC1, 72 h, read-out: The results of antibiotic drug inhibiting cancer cell lines (cell viability analysis), AsPC-1): 67.6% | viability at 10 µM (NIH: OVCAR-3; Homo sapiens, OVCAR-3, 72 h, read-out: The results of antibiotic drug inhibiting cancer cell lines (cell viability analysis), NIH-OVCAR-3): 72.1% | viability at 10 µM (TOV-21G; Homo sapiens, TOV21G, 72 h, read-out: The results of antibiotic drug inhibiting cancer cell lines (cell viability analysis), TOV-21G): 76.3% | viability at 10 µM ([16]; Homo sapiens, 72 h, read-out: The results of antibiotic drug inhibiting cancer cell lines (cell viability analysis), SAS): 92.4% | viability at 10 µM (U-2OS; Homo sapiens, U2OS, 72 h, read-out: The results of antibiotic drug inhibiting cancer cell lines (cell viability analysis), U2OS): 84.8% | viability at 10 µM ([17]; Homo sapiens, 786-0, 72 h, read-out: The results of antibiotic drug inhibiting cancer cell lines (cell viability analysis), 786-O): 86.1% | viability at 10 µM [18]: 103% | viability [19]: 91.3%

CC1(C)[C@@H](O[C@H]2O[C@H](C(=O)O)[C@@H](O)[C@H](O)[C@H]2O[C@@H]2O[C@H](C(=O)O)[C@@H](O)[C@H](O)[C@H]2O)CC[C@]2(C)[C@H]3C(=O)C=C4[C@@H]5C[C@@](C)(C(=O)O)CC[C@]5(C)CC[C@@]4(C)[C@]3(C)CC[C@@H]12 [Ammonium Glycyrrhizinate (AMGZ), Ammonium Glycyrrhizinate]
inhibition effect on different cancer cell lines (cancer cell lines): significant inhibition effect | The results of antibiotic drug inhibiting cancer cell lines (cell viability analysis), H1650 [1]: 76.88 | The results of antibiotic drug inhibiting cancer cell lines (cell viability analysis), A549 [2]: 83.55 | The results of antibiotic drug inhibiting cancer cell lines (cell viability analysis), AGS [3]: 109.2 | The results of antibiotic drug inhibiting cancer cell lines (cell viability analysis), MKN-45 [4]: 96.41 | The results of antibiotic drug inhibiting cancer cell lines (cell viability analysis), HepG2 [5]: 119.7 | The results of antibiotic drug inhibiting cancer cell lines (cell viability analysis), Hep3B [6]: 102.1 | The results of antibiotic drug inhibiting cancer cell lines (cell viability analysis), LoVo [7]: 100.4 | The results of antibiotic drug inhibiting cancer cell lines (cell viability analysis), A375 [8]: 100.5 | The results of antibiotic drug inhibiting cancer cell lines (cell viability analysis), BCC [9]: 93.09 | The results of antibiotic drug inhibiting cancer cell lines (cell viability analysis), HeLa [10]: 103.4 | The results of antibiotic drug inhibiting cancer cell lines (cell viability analysis), C-33A [11]: 108.4 | The results of antibiotic drug inhibiting cancer cell lines (cell viability analysis), PC-3 [12]: 120.7 | The results of antibiotic drug inhibiting cancer cell lines (cell viability analysis), TSGH-8301 [13]: 105.2 | The results of antibiotic drug inhibiting cancer cell lines (cell viability analysis), T24 (T24): 107.9 | The results of antibiotic drug inhibiting cancer cell lines (cell viability analysis), MCF-7 [14]: 69.06 | The results of antibiotic drug inhibiting cancer cell lines (cell viability analysis), MDA-MB231 [15]: 98.74 | The results of antibiotic drug inhibiting cancer cell lines (cell viability analysis), BxPC-3 (BxPC-3): 102.8 | The results of antibiotic drug inhibiting cancer cell lines (cell viability analysis), AsPC-1 (AsPC-1): 100.6 | The results of antibiotic drug inhibiting cancer cell lines (cell viability analysis), NIH-OVCAR-3 (NIH: OVCAR-3): 101 | The results of antibiotic drug inhibiting cancer cell lines (cell viability analysis), TOV-21G (TOV-21G): 74.39 | The results of antibiotic drug inhibiting cancer cell lines (cell viability analysis), SAS [16]: 83.22 | The results of antibiotic drug inhibiting cancer cell lines (cell viability analysis), U2OS (U-2OS): 78.97 | The results of antibiotic drug inhibiting cancer cell lines (cell viability analysis), 786-O [17]: 102.9 | viability [19]: 93.4%

Reference: US10105357B2, “Indication of antibiotic drugs for preparation of cancer inhibition pharmaceutical composition” (LAUNX BIOMEDICAL CO., LTD., priority 2014, dated 2018)
